This is an account of results in patent publication US10391079B2, “Methods of diagnosing and treating Alzheimer's disease with S-equol” (Ausio Pharmaceuticals, LLC, priority 2016, dated 2019).

Data set [1] deals with Alzheimer's disease subjects. Nature of the data set: Montreal Cognitive Assessment (MoCA) in single-blind S-equol pilot study. It is filed as in vivo, human. As to conditions: for MoCA Visit 3 (Mean ± SEM): wash-out evaluation, 2 weeks placebo after S-equol; for percent MoCA score change between visit 1 and visit 2: FIG. 1. How it is done: Alzheimer's disease subjects were recruited through the University of Kansas Alzheimer's Disease Center (ADC). The ADC maintains a clinical cohort whose routine characterizations include Clinical Dementia Rating (CDR) scale ratings, uniform data set (UDS) cognitive testing, and APOE genotyping. The diagnosis of clinic cohort participants is primarily based on CDR and UDS data, and is determined through a consensus conference that includes subspecialty-trained cognitive neurologists and an expert neuropsychologist. Subjects diagnosed with Alzheimer's disease further meet current criteria for that diagnosis in McKhann et al., Alzheimers Dement, 7 (2011) 263-269.
To qualify for the study, participants had to be female with very mild (CDR 0.5) or mild (CDR 1) Alzheimer's disease. Each participant was required to have a study partner. As part of the informed consent process, the subjects and study partners were told that during different parts of the study the participants would receive either an S-equol capsule or an inert placebo. The placebo could not be distinguished from the S-equol by sight, touch, or taste so although the investigators knew whether participants at any given point were receiving S-equol or placebo, the participants themselves were blind to the actual treatment. The S-equol and placebo capsule were provided by Ausio Pharmaceuticals, LLC (Cincinnati, Ohio).
(§1) Subjects received a two week supply of medication, which uniformly consisted of placebo, and were instructed to take the study medication twice a day. At the end of this initial two-week period participants returned to the ADC clinical trials unit for their first study visit (visit 1; lead-in evaluation). Visit 1 procedures included an assessment of study medication compliance, vital signs, a query for perceived side effects, the Montreal Cognitive Assessment (MoCA), and a 40 ml phlebotomy; the blood was used to measure platelet mitochondria cytochrome oxidase (COX) and citrate synthase (CS) activities. At the completion of this visit the next two weeks of study medication was dispensed, which uniformly consisted of 10 mg S-equol capsule.
(§2) At the end of this second two-week period participants returned to the ADC clinical trials unit for their second study visit (visit 2; active treatment evaluation). The same procedures were performed during the lead-in evaluation and dispensed the next two weeks of study medication, which at this point uniformly consisted of placebo.
(§3) At the end of this final two-week period the participants returned to the ADC clinical trials unit for their third study visit (visit 3; wash-out evaluation). The lead-in and active treatment evaluation procedures were performed again, which completed participation in this single-blind study.
(§4) Secondary outcomes included a safety analysis of the S-equol 10 mg twice per day dose and an analysis of MoCA scores.

The test system of data set [2] is platelet mitochondria cytochrome oxidase (COX). Nature of the data set: Platelet mitochondria COX activity referenced to CS activity (COX/CS) in S-equol pilot study. As to conditions: for COX/CS Visit 3 (Mean ± SEM): wash-out, 2 weeks placebo after S-equol. The data set is classed as in vivo, human. The protocol:
as §1, §2, §3
Forty milliliter blood samples were collected in tubes containing acid-citrate-dextrose (ACD) tubes as an anticoagulant, and maintained at room temperature. Within 24 hours of phlebotomy the blood was processed by the ADC Mitochondrial Genomics and Metabolism Core. To initiate the processing procedure, platelets were isolated by centrifugation and enriched mitochondrial fractions prepared using previously described methods. Such procedures involved nitrogen cavitation to rupture platelets followed by centrifugation to collect mitochondria.
The protein concentrations of the enriched mitochondrial fractions were measured using a BCA protein assay kit (BioRad, Hercules, Calif.). COX Vmax activity was determined as a pseudo first order-rate constant (sec-1/mg) by measuring the oxidation of reduced cytochrome c at 550 nm.
In addition to measuring COX activity, each sample's citrate synthase (CS) Vmax activity (nmol/min/mg) was measured. This assay was performed spectrophotometrically by following the formation of 5-thio-2-nitrobenzoate (412 nm) following the addition of 100 μM oxaloacetate at 30° C. In addition to referencing COX activities to total protein, potential inter-sample differences in mitochondrial mass was corrected by referencing the COX activity for each sample to its corresponding CS activity.
An S-equol-associated modification of platelet mitochondria COX activity was designated as the primary outcome measure. To determine whether an S-equol-associated change in platelet mitochondrial COX activity occurred for an individual participant, an anticipated pattern of response analysis was used. It was expected that platelet mitochondria COX activity would increase in response to the active treatment.
Participants were identified as responding (i.e., increasing COX activity in response to treatment, classified as “successes” or “responders”) if the individual change (slope) from the lead-in measurement to the active treatment measurement was greater than the change (slope) from the active-treatment measurement to the wash-out (visit 3) measurement.

For data set [3], the system named is Alzheimer's disease patients. Description: Safety analysis of S-equol 10 mg twice per day. The data set is classed as in vivo, human. The note with it: S-equol 10 mg twice per day for two weeks. How it is done:
as §1, §4

The next data set deals with cytochrome oxidase (COX). As to conditions: brains from ovariectomized mice; cited from earlier work.

Entries after “also recorded” stand apart in the source; their conditions may differ.

Regarding `Oc1ccc([C@H]2COc3cc(O)ccc3C2)cc1` [S-equol], the “MoCA Visit 3 (Mean ± SEM)” value in data set [1] (APOE4 carriers, 8 participants) turned out to be 15.9 ± 2.7; in data set [1] (APOE4 non-carriers, 7 participants) it was 12.4 ± 1.6; in data set [1] (Total, 15 participants) it was 14.3 ± 1.6. Moreover, the entries for the “percent MoCA score change between visit 1 and visit 2” value in data set [1] (APOE4 carriers) and in data set [1] (APOE4 non-carriers) were “trended in a downward direction” and “in an upward direction”, respectively. Further, the “differences in mean MoCA scores between visits, or between APOE4 carriers and non-carriers” value in data set [1] (visits 1-3) is reported as “No significant differences were observed”. Further, the COX/CS Visit 3 (Mean ± SEM) in data set [2] (APOE4 carriers, 8 participants) was 4.4e-05; in data set [2] (APOE4 non-carriers, outlier excluded, 6 participants), 4.1e-05; in data set [2] (APOE4 non-carriers, outlier included, 7 participants), 5.1E−05 ± 1.1E−05; in data set [2] (Total, outlier excluded, 14 participants), 4.2e-05; in data set [2] (Total, outlier included, 15 participants), 4.7e-05. For the same compound, the “percent COX/CS change between visit 1 and visit 2” value in data set [2] (non-APOE4 carriers versus APOE4 carriers, FIG. 3) was “trended higher in the non-APOE4 carriers than it did in the APOE4 carriers”. For the same compound, the “differences in mean COX/CS values between visits, or between APOE4 carriers and non-carriers” value in data set [2] (visits 1-3) is “No significant differences were observed”. Moreover, the adverse events entry in data set [3] is reported as “No treatment-related adverse events (either serious or non-serious) were observed; also recorded: No adverse events occurred”. In addition, in the data set on cytochrome oxidase (COX), the COX1 protein levels result is given as “increase”. In addition, in the data set on cytochrome oxidase (COX), the “cytochrome oxidase (COX) activity” value is recorded as “increase”.
